The values below come from US5709816A, “Singlet oxygen quenchers and external compositions containing the same” (Kao Corporation, priority 1899, dated 1998).

Assay [1] concerns collagen. Description: Inhibition of protein denaturation (collagen crosslinking, porphyrin + UV). Format: biochemical. The conditions noted are these: 0.1 wt. % in ethanol; collagen 0.5 mg/ml, porphyrin 100 mM; UV-A/UV-B 3 J/cm^2; SDS-PAGE. As for the experimental part: Inhibition of protein denaturation
An ethanol solution containing a test substance (0.1 wt. %) was added to a mixture of collagen (0.5 mg/ml) and 2 porphyrin (100 mM). A mixture of UV-A/UV-B (3 J/cm^2, measured at 365 nm) was irradiated onto the resultant mixture using a solar simulator. The irradiated mixture was applied to SDS-PAGE electrophoresis, and collagen crosslinking inhibition ratios were measured.

Assay [2] has as its system sunburn cells in skin of ICR/HR mice. In words: Inhibition of sunburn cell formation (UV-B irradiation). In kind it is in vivo. The note with it: Mus musculus, light or radiation study, topical; 1 wt. % in ethanol; UV-B 100 mJ/cm^2; 24 hours later; read-out: Inhibition ratio regarding sunburn cell formation. The source says:
Inhibition of sunburn cell formation
Ethanol solution of a test substance (1 wt. %) was applied onto the skin of ICR/HR mice. UV-B (100 mJ/cm^2) was irradiated onto the skin (health lamp SE20/SLE, Toshiba). Twenty-four hours later, the skin was biopsied and stained using hematoxylin & eosin, after which the number of sunburn cells were counted under microscope.

In assay [3] the test system is dopachrome formation from dopa. Description: Inhibition of immediate pigment darkening (dopachrome formation from dopa, porphyrin + UV). Format: biochemical. The note with it: 0.5 wt. % in ethanol; dopa 1 mM, porphyrin 5 mM; UV-A/UV-B 3 J/cm^2; absorption at 475 nm. The protocol: Inhibition of immediate pigment darkening
An ethanol solution containing a test substance (0.5 wt. %) was added to a mixture of dopa (1 mM) and porphyrin (5 mM). A mixture of UV-A/UV-B (3 J/cm^2, measured at 365 nm) was irradiated onto the resultant mixture using a solar simulator. The amount of dopachrome formed by irradiation was determined by measuring absorption at 475 nm.

The subject of assay [4] is skin of white guinea pigs. Description: Inhibition of erythema formation (UV-A/UV-B irradiation). Format: in vivo. The note with it: Cavia porcellus, light or radiation study, topical; 5 wt. % in ethanol; UV-A/UV-B 40 J/cm^2; determined after 1 day and 2 days; read-out: Erythema inhibition rate. An excerpt: Inhibition of erythema formation
The hair of white guinea pigs (8 weeks old, female) hair was removed by shaving, and an ethanol solution containing a test substance (5 wt. %) was applied to the shaved part of each animal. A mixture of UV-A/UV-B (40 J/cm^2, measured at 365 nm using a UV-radiometer UVR-305/365-D, Torex Co.) was irradiated onto the back of each guinea pig using a solar simulator Model 1600 (Solar Light Co.). After 1 day and 2 days of irradiation, the erythema formation was visually determined by the standards of the Japanese Dermatological Association to obtain erythema inhibition ratios.

Assay [5] relates to skin of colored guinea pigs. In words: Inhibition of delayed darkening (UV-A/UV-B irradiation). Format: in vivo. The conditions noted are these: 7 wt. % in ethanol; UV-A/UV-B 50 J/cm^2; 14 days after irradiation; color difference meter. As for the experimental part: Inhibition of delayed darkening
The hair of colored guinea pigs (8 week old, female) hair was removed, and an ethanol solution containing a test substance (7 wt. %) was applied to the skin. A mixture of UV- A/UV-B rays (50 J/cm^2, measured at 365 nm using a UV-radiometer UVR-305/365-D, Torex Co.) was irradiated onto the back of each guinea pig using a solar simulator. Fourteen days after irradiation, delayed darkening inhibition ratios were measured using a color difference meter (Model 1001P. Nippon Kogyo Co., Ltd.).

The test system of assay [6] is skin of ICR/HR mice. In words: Inhibition of wrinkle formation in the skin of mice (UV-B, 16 weeks). Format: in vivo, ICR/HR mouse. The note with it: Mus musculus, topical, 2688 h; 1 wt. % in ethanol; 1 MED UV-B five times per week over sixteen weeks. An excerpt: Inhibition of wrinkle formation in the skin of mice
To the back of each ICR/HR mouse (female, 6 weeks old), an ethanol solution containing a test substance (1 wt. %) was applied. One (1) MED of UV-B was irradiated thereto using a health lamp SL20-SLE (Toshiba). Irradiation was repeated five times per week over sixteen weeks. Wrinkle formation was visually scored using the following five rankings.
1: Mild and questionable wrinkles are observed
2: Mild but clear and definite wrinkles are observed
3: Moderate wrinkles are observed
4: Severe wrinkles are observed
Using the above rankings, wrinkle formations were scored and the inhibition ratios were determined by the division by the blank score.

Assay [7] concerns cultured human fibroblasts. Description: Inhibition of lipid peroxide formation in cultured human fibroblasts (TBA method). Format: cell-based. The conditions noted are these: Homo sapiens, Fibroblast, light or radiation study, 0.01 wt. % in ethanol, 100 mM porphyrin, UV-A/UV-B 1 J/cm^2, read-out: Inhibition ratio regarding lipid peroxide formation. The protocol: Inhibition of lipid peroxide formation
Cultured human fibroblasts were combined with 100 mM porphyrin and a test substance (0.01 wt. %, in ethanol). A mixture of UV-A/UV-B rays (1 J/cm^2, measurements performed at 365 nm) was irradiated onto the resultant cell culture using a solar simulator. The fibroblasts were collected after the trypsin treatment, then extracted hydrophobic substances using acetone. The extracted substances were dried under nitrogen to prepare cellular lipid samples. A TBA method was used to measure lipid peroxides in cells and inhibition ratio by a test substance.

Structures are written as SMILES.

Consider `COCC(O)CN(C)c1ccc(OC)cc1` (stereo not shown) [Compound (1), N-(2-hydroxy-3-methoxypropyl)-N-methyl-p-anisidine], for which the “Protein denaturation inhibition ratio” value in assay [1] was determined as 85%. Moreover, the results for the inhibition in vivo at 1 % in assay [2] and in assay [6] were 79% and 47%, respectively. Further, in assay [3], the “Inhibition ratio regarding immediate blackening” value amounted to 71%. Further, the inhibition in vivo at 5 % in assay [4] was 68%. Further, in assay [5], the ΔΔL value came to 1.7. Besides, the inhibition at 0.01 wt% in assay [7] came out at 51%.

For the molecule `CCCCN(CC(O)COC)c1ccc(OC)cc1` (stereo not shown) [Compound (2), N-n-butyl-N-(2-hydroxy-3-methoxypropyl)-p-anisidine], the “Protein denaturation inhibition ratio” value in assay [1] is reported as 62%. Moreover, the inhibition in vivo at 1 % was found to be 53% in assay [2] and 38% in assay [6]. Also, the “Inhibition ratio regarding immediate blackening” value in assay [3] is 57%. Further, the inhibition in vivo at 5 % in assay [4] is 42%. In addition, in assay [5], the ΔΔL value was found to be 1.1. Besides, in assay [7], the inhibition at 0.01 wt% stood at 43%.

For `CCCCCCCCN(CC(O)COC)c1ccc(OC)cc1` (stereo not shown) [Compound (3), N-(2-hydroxy-3-methoxypropyl)-N-n-octyl-p-anisidine], the “Protein denaturation inhibition ratio” value in assay [1] was 93%. Further, the inhibition in vivo at 1 % was 86% in assay [2] and 58% in assay [6]. In addition, in assay [3], the “Inhibition ratio regarding immediate blackening” value was 83%. In assay [4], the inhibition in vivo at 5 % was determined as 71%. In assay [5], this molecule showed a ΔΔL value of 2.0. Besides, the inhibition at 0.01 wt% in assay [7] turned out to be 60%.

Consider `COCC(O)CN(CC(O)COC)c1ccc(C)cc1` (stereo not shown) [Compound (4), N,N-bis(2-hydroxy-3-methoxypropyl)-p-toluidine], for which the “Protein denaturation inhibition ratio” value in assay [1] stood at 87%. Also, the inhibition in vivo at 1 % worked out at 81% in assay [2] and 51% in assay [6]. Besides, the “Inhibition ratio regarding immediate blackening” value in assay [3] worked out at 76%. Also, the inhibition in vivo at 5 % in assay [4] turned out to be 69%. This molecule returned a ΔΔL value in assay [5] of 1.8. Moreover, the inhibition at 0.01 wt% in assay [7] was found to be 57%.

For the molecule `CCCCN(CC(O)COC)c1ccc(C)cc1` (stereo not shown) [Compound (5), N-n-butyl-N-(2-hydroxy-3-methoxypropyl)-p-toluidine], in assay [1], the “Protein denaturation inhibition ratio” value came to 81%. Besides, the inhibition in vivo at 1 % in assay [2] amounted to 65%; in assay [6], 43%. Further, the “Inhibition ratio regarding immediate blackening” value in assay [3] amounted to 65%. For the same molecule, the inhibition in vivo at 5 % in assay [4] came out at 65%. For the same molecule, the ΔΔL value in assay [5] came out at 1.5. For the same molecule, the inhibition at 0.01 wt% in assay [7] is 48%.

Regarding `CCCCN(CC(O)COC)c1ccccc1` (stereo not shown) [Compound (6), N-n-butyl-N-(2-hydroxy-3-methoxypropyl)aniline], the “Protein denaturation inhibition ratio” value in assay [1] was determined as 53%. In addition, the inhibition in vivo at 1 % amounted to 46% in assay [2] and 36% in assay [6]. The “Inhibition ratio regarding immediate blackening” value in assay [3] worked out at 53%. Also, the inhibition in vivo at 5 % in assay [4] amounted to 37%. The molecule also came in with a ΔΔL value in assay [5] of 1.1. Also, the inhibition at 0.01 wt% in assay [7] was found to be 40%.

For `CCCCN(CC(O)COC)c1ccc(C)c(C)c1` (stereo not shown) [Compound (32), N-n-butyl-N-(2-hydroxy-3-methoxypropyl)-3,4-xylidine], the “Protein denaturation inhibition ratio” value in assay [1] amounted to 88%. Moreover, the figures for the inhibition in vivo at 1 % in assay [2] and in assay [6] were 61% and 43%, respectively. The “Inhibition ratio regarding immediate blackening” value in assay [3] was determined as 56%. Further, the inhibition in vivo at 5 % in assay [4] was 53%. This molecule also registered a ΔΔL value in assay [5] of 1.3. The inhibition at 0.01 wt% in assay [7] was found to be 54%.

Turning to `Cc1ccc(N(C)CC(O)CO)cc1` (stereo not shown) [Compound (33), N-(2,3-dihydroxypropyl)-N-methyl-p-toluidine], in assay [1], the “Protein denaturation inhibition ratio” value is reported as 44%. For the same molecule, the results for the inhibition in vivo at 1 % in assay [2] and in assay [6] were 54% and 35%, respectively. The “Inhibition ratio regarding immediate blackening” value in assay [3] stood at 67%. Further, the inhibition in vivo at 5 % in assay [4] stood at 43%. The molecule also showed a ΔΔL value in assay [5] of 1.1. Also, in assay [7], the inhibition at 0.01 wt% turned out to be 47%.

`CCCCN(CC(O)CO)c1ccc(C)c(C)c1` (stereo not shown) [Compound (34), N-n-butyl-N-(2,3-dihydroxypropyl)-3,4-xylidine]: the “Protein denaturation inhibition ratio” value in assay [1] amounted to 61%. Further, the inhibition in vivo at 1 % was determined as 64% in assay [2] and 43% in assay [6]. For the same molecule, the “Inhibition ratio regarding immediate blackening” value in assay [3] stood at 63%. Also, the inhibition in vivo at 5 % in assay [4] was 65%. This molecule yielded a ΔΔL value in assay [5] of 1.3. Also, the inhibition at 0.01 wt% in assay [7] turned out to be 52%.

With `CCCCCCCCN(CC(O)CO)c1ccc(OC)cc1` (stereo not shown) [Compound (35), N-(2,3-dihydroxypropyl)-N-octyl-p-anisidine], the “Protein denaturation inhibition ratio” value in assay [1] turned out to be 84%. The values for the inhibition in vivo at 1 % in assay [2] and in assay [6] were 81% and 42%, respectively. Further, the “Inhibition ratio regarding immediate blackening” value in assay [3] is recorded as 78%. Further, the inhibition in vivo at 5 % in assay [4] worked out at 78%. For the same molecule, the ΔΔL value in assay [5] turned out to be 1.9. In addition, the inhibition at 0.01 wt% in assay [7] is 56%.
